Source: ChEMBL document CHEMBL1145519, “Exploitation of structural and regulatory diversity in glutamate racemases” (Nature, 2007)
Calls of active or inactive are those of the source. No cut-off for these calls is given here.

Legend:
[1] = test system: Escherichia coli
Description: Activity of Escherichia coli MurI

[2] = test system: Enterococcus faecium
Description: Activity of Enterococcus faecium MurI

[3] = test system: Staphylococcus aureus
Description: Activity of Staphylococcus aureus MurI

[4] = test system: Helicobacter pylori; assay: Increase in UDP-MurNAc-Ala level in Helicobacter pylori; type: functional, organism-based

| Structure (SMILES) | Km [1] | kcat [1] | Km [2] | Km [3] | kcat [3] | Activity [4] |
| --- | --- | --- | --- | --- | --- | --- |
| N[C@H](CCC(=O)O)C(=O)O | 2100 µM | 43.3 s⁻¹ | 240 µM | 140 µM | 0.567 s⁻¹ | – |
| N[C@@H](CCC(=O)O)C(=O)O | 1200 µM | 12.2 s⁻¹ | 1100 µM | 4600 µM | 8.5 s⁻¹ | – |
| CC(C)Cn1c(=O)n(C)c(=O)c2c(-c3ccncc3)n(Cc3cccc4ccccc34)nc21 | – | – | – | – | – | Active |
